Laboratory results reported in patent US12617779B2, “Self degradation-type CDK9 inhibitor prodrug and liposome encapsulating same” (Sumitomo Pharma Co., Ltd., priority 2021, dated 2026).

Assay: Evaluation of conversion rate to active form in buffer solution (Experimental Example 1)
Type: physicochemical
Conditions: for Stability in buffer solution at pH 5 / Conversion to Alvocidib at pH 5 within 3 hours: pH 5, 37° C.; for Stability in buffer solution at pH 5: up to 2 or 3 hours
Protocol: For Examples 1 to 16 and Comparative Examples 1 to 14, the attrition rate of the test compound and the conversion rate of the test compound to Alvocidib in a buffer solution were calculated by the following method.
Examples 1 to 16 and Comparative Examples 1 to 14 were each left in buffer solutions adjusted to pH 5.0, 5.5, 6.0, 6.5, 7.0 and 7.4, respectively, at a concentration of 25 umol/L at 37° C. After 0, 0.5, 1, 2 and 3 hours, the residual rates of the compounds of Examples […] and the production rate of Alvocidib were determined by HPLC.
The buffer solutions used at each pH are as follows. • pH 5.0: 50 mM citrate buffer solution (pH 5.0) • pH 5.5: 50 mM citrate buffer solution (pH 5.5) • pH 6.0: 50 mM phosphate buffer solution (pH 6.0) • pH 6.5: 50 mM phosphate buffer solution (pH 6.5) • pH 7.0: 50 mM phosphate buffer solution (pH 7.0) • pH 7.4: 50 mM phosphate buffer solution (pH 7.4)
The measurement conditions for HPLC are as follows.

[1] = pH5.0, 0 hr, 37° C., 25 umol/L in buffer solution
[2] = pH5.0, 0.5 hr, 37° C., 25 umol/L in buffer solution
[3] = pH5.0, 1 hr, 37° C., 25 umol/L in buffer solution
[4] = pH5.0, 2 hr, 37° C., 25 umol/L in buffer solution
[5] = pH5.0, 3 hr, 37° C., 25 umol/L in buffer solution
[6] = pH5.5, 0 hr, 37° C., 25 umol/L in buffer solution
[7] = pH5.5, 0.5 hr, 37° C., 25 umol/L in buffer solution
[8] = pH5.5, 1 hr, 37° C., 25 umol/L in buffer solution
[9] = pH5.5, 2 hr, 37° C., 25 umol/L in buffer solution
[10] = pH5.5, 3 hr, 37° C., 25 umol/L in buffer solution
[11] = pH6.0, 0 hr, 37° C., 25 umol/L in buffer solution
[12] = pH6.0, 0.5 hr, 37° C., 25 umol/L in buffer solution
[13] = pH6.0, 1 hr, 37° C., 25 umol/L in buffer solution
[14] = pH6.0, 2 hr, 37° C., 25 umol/L in buffer solution
[15] = pH6.0, 3 hr, 37° C., 25 umol/L in buffer solution
[16] = pH6.5, 0 hr, 37° C., 25 umol/L in buffer solution
[17] = pH6.5, 0.5 hr, 37° C., 25 umol/L in buffer solution
[18] = pH6.5, 1 hr, 37° C., 25 umol/L in buffer solution
[19] = pH6.5, 2 hr, 37° C., 25 umol/L in buffer solution
[20] = pH6.5, 3 hr, 37° C., 25 umol/L in buffer solution
[21] = pH7.0, 0 hr, 37° C., 25 umol/L in buffer solution
[22] = pH7.0, 0.5 hr, 37° C., 25 umol/L in buffer solution
[23] = pH7.0, 1 hr, 37° C., 25 umol/L in buffer solution
[24] = pH7.0, 2 hr, 37° C., 25 umol/L in buffer solution
[25] = pH7.0, 3 hr, 37° C., 25 umol/L in buffer solution
[26] = pH7.4, 0 hr, 37° C., 25 umol/L in buffer solution
[27] = pH7.4, 0.5 hr, 37° C., 25 umol/L in buffer solution
[28] = pH7.4, 1 hr, 37° C., 25 umol/L in buffer solution
[29] = pH7.4, 2 hr, 37° C., 25 umol/L in buffer solution
[30] = pH7.4, 3 hr, 37° C., 25 umol/L in buffer solution

SMILES: CCNC(=O)Oc1cc(O)c2c(=O)cc(-c3ccccc3Cl)oc2c1[C@H]1CCN(C)C[C@H]1O [Comparative Example 1, reference compound]
- Production rate of Alvocidib [1]: 8.4%
- Residual rate [1]: 91.6%
- Stability in buffer solution at pH 5: unstable
- Conversion to Alvocidib at pH 5 within 3 hours: mostly converted to Alvocidib
- Production rate of Alvocidib [2]: 37.9%
- Residual rate [2]: 62.1%
- Production rate of Alvocidib [3]: 58.5%
- Residual rate [3]: 41.5%
- Production rate of Alvocidib [4]: 82.1%
- Residual rate [4]: 17.9%
- Production rate of Alvocidib [5]: 91.8%
- Residual rate [5]: 8.2%
- Production rate of Alvocidib [6]: 8.8%
- Residual rate [6]: 91.2%
- Production rate of Alvocidib [7]: 74.7%
- Residual rate [7]: 25.3%
- Production rate of Alvocidib [8]: 92.7%
- Residual rate [8]: 7.3%
- Production rate of Alvocidib [9]: 98.9%
- Residual rate [9]: 1.1%
- Production rate of Alvocidib [10]: 99.3%
- Residual rate [10]: 0.7%
- Production rate of Alvocidib [11]: 10.1%
- Residual rate [11]: 89.9%
- Production rate of Alvocidib [12]: 96.3%
- Residual rate [12]: 3.7%
- Production rate of Alvocidib [13]: 98.3%
- Residual rate [13]: 1.5%
- Production rate of Alvocidib [14]: 98.5%
- Residual rate [14]: 1.3%
- Production rate of Alvocidib [15]: 99.0%
- Residual rate [15]: 1.0%
- Production rate of Alvocidib [16]: 12.9%
- Residual rate [16]: 87.1%
- Production rate of Alvocidib [17]: 98.7%
- Residual rate [17]: 1.3%
- Production rate of Alvocidib [18]: 99.0%
- Residual rate [18]: 1.0%
- Production rate of Alvocidib [19]: 98.9%
- Residual rate [19]: 1.1%
- Production rate of Alvocidib [20]: 99.2%
- Residual rate [20]: 0.8%
- Production rate of Alvocidib [21]: 22.2%
- Residual rate [21]: 77.8%
- Production rate of Alvocidib [22]: 99.0%
- Residual rate [22]: 1.0%
- Production rate of Alvocidib [23]: 99.1%
- Residual rate [23]: 0.9%
- Production rate of Alvocidib [24]: 98.8%
- Residual rate [24]: 1.0%
- Production rate of Alvocidib [25]: 99.1%
- Residual rate [25]: 0.9%
- Production rate of Alvocidib [26]: 40.2%
- Residual rate [26]: 59.8%
- Production rate of Alvocidib [27]: 99.1%
- Residual rate [27]: 0.9%
- Production rate of Alvocidib [28]: 98.9%
- Residual rate [28]: 1.1%
- Production rate of Alvocidib [29]: 99.1%
- Residual rate [29]: 1.0%
- Production rate of Alvocidib [30]: 99.3%
- Residual rate [30]: 0.7%

SMILES: CNC(=O)Oc1cc(O)c2c(=O)cc(-c3ccccc3Cl)oc2c1[C@H]1CCN(C)C[C@H]1O [Comparative Example 2, reference compound]
- Production rate of Alvocidib (pH5.0, 0 hr): 2.0%
- Residual rate (pH5.0, 0 hr): 96.6%
- Stability in buffer solution at pH 5: unstable
- Conversion to Alvocidib at pH 5 within 3 hours: mostly converted to Alvocidib
- Production rate of Alvocidib (pH5.0, 0.5 hr): 31.8%
- Residual rate (pH5.0, 0.5 hr): 66.9%
- Production rate of Alvocidib (pH5.0, 1 hr): 53.2%
- Residual rate (pH5.0, 1 hr): 45.1%
- Production rate of Alvocidib (pH5.0, 2 hr): 79.0%
- Residual rate (pH5.0, 2 hr): 19.3%
- Production rate of Alvocidib (pH5.0, 3 hr): 90.0%
- Residual rate (pH5.0, 3 hr): 8.5%
- Production rate of Alvocidib (pH5.5, 0 hr): 2.4%
- Residual rate (pH5.5, 0 hr): 96.4%
- Production rate of Alvocidib (pH5.5, 0.5 hr): 70.5%
- Residual rate (pH5.5, 0.5 hr): 28.0%
- Production rate of Alvocidib (pH5.5, 1 hr): 90.8%
- Residual rate (pH5.5, 1 hr): 7.5%
- Production rate of Alvocidib (pH5.5, 2 hr): 97.6%
- Residual rate (pH5.5, 2 hr): 0.6%
- Production rate of Alvocidib (pH5.5, 3 hr): 98.6%
- Residual rate (pH5.5, 3 hr): 0.0%
- Production rate of Alvocidib (pH6.0, 0 hr): 3.3%
- Residual rate (pH6.0, 0 hr): 95.1%
- Production rate of Alvocidib (pH6.0, 0.5 hr): 95.7%
- Residual rate (pH6.0, 0.5 hr): 2.5%
- Production rate of Alvocidib (pH6.0, 1 hr): 98.2%
- Residual rate (pH6.0, 1 hr): 0.0%
- Production rate of Alvocidib (pH6.0, 2 hr): 98.3%
- Residual rate (pH6.0, 2 hr): 0.0%
- Production rate of Alvocidib (pH6.0, 3 hr): 98.6%
- Residual rate (pH6.0, 3 hr): 0.0%
- Production rate of Alvocidib (pH6.5, 0 hr): 7.1%
- Residual rate (pH6.5, 0 hr): 91.5%
- Production rate of Alvocidib (pH6.5, 0.5 hr): 98.3%
- Residual rate (pH6.5, 0.5 hr): 0.0%
- Production rate of Alvocidib (pH6.5, 1 hr): 98.3%
- Residual rate (pH6.5, 1 hr): 0.0%
- Production rate of Alvocidib (pH6.5, 2 hr): 98.5%
- Residual rate (pH6.5, 2 hr): 0.0%
- Production rate of Alvocidib (pH6.5, 3 hr): 98.2%
- Residual rate (pH6.5, 3 hr): 0.0%
- Production rate of Alvocidib (pH7.0, 0 hr): 17.0%
- Residual rate (pH7.0, 0 hr): 81.8%
- Production rate of Alvocidib (pH7.0, 0.5 hr): 98.6%
- Residual rate (pH7.0, 0.5 hr): 0.0%
- Production rate of Alvocidib (pH7.0, 1 hr): 98.3%
- Residual rate (pH7.0, 1 hr): 0.0%
- Production rate of Alvocidib (pH7.0, 2 hr): 98.3%
- Residual rate (pH7.0, 2 hr): 0.0%
- Production rate of Alvocidib (pH7.0, 3 hr): 98.3%
- Residual rate (pH7.0, 3 hr): 0.0%
- Production rate of Alvocidib (pH7.4, 0 hr): 34.5%
- Residual rate (pH7.4, 0 hr): 63.9%
- Production rate of Alvocidib (pH7.4, 0.5 hr): 98.4%
- Residual rate (pH7.4, 0.5 hr): 0.0%
- Production rate of Alvocidib (pH7.4, 1 hr): 98.2%
- Residual rate (pH7.4, 1 hr): 0.0%
- Production rate of Alvocidib (pH7.4, 2 hr): 98.5%
- Residual rate (pH7.4, 2 hr): 0.0%
- Production rate of Alvocidib (pH7.4, 3 hr): 98.5%
- Residual rate (pH7.4, 3 hr): 0.0%
